Test results: PubChem BioAssay (NCI)
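Five compound concentrations were applied to cells in 96-well plates for 48 hours; endpoints were derived by simple linear interpolation of the resulting dose-response curve. TGI marks complete inhibition of growth.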

Tests used:
Assay in all cases: NCI tumour cell line growth inhibition, 48 h
EKVX NSCLC = tested on: EKVX NSCLC
SN12C renal = tested on: SN12C renal
A498 renal = tested on: A498 renal
RXF 393 renal = tested on: RXF 393 renal
CAKI-1 renal = tested on: CAKI-1 renal
KM12 colon = tested on: KM12 colon
COLO 205 colon = tested on: COLO 205 colon
NCI-H226 lung = tested on: NCI-H226 lung
OVCAR-3 ovarian = tested on: OVCAR-3 ovarian
M19-MEL melanoma = tested on: M19-MEL melanoma
A549 NSCLC = tested on: A549 NSCLC
HCT-116 colon = tested on: HCT-116 colon
DLD-1 colon = tested on: DLD-1 colon
NCI-H460 lung = tested on: NCI-H460 lung
SNB-19 CNS = tested on: SNB-19 CNS
NCI-H522 lung = tested on: NCI-H522 lung
SK-MEL-5 melanoma = tested on: SK-MEL-5 melanoma
HL-60(TB) leukemia = tested on: HL-60(TB) leukemia
K-562 leukemia = tested on: K-562 leukemia
P388 leukemia = tested on: P388 leukemia
UO-31 renal = tested on: UO-31 renal
SF-539 CNS = tested on: SF-539 CNS
SNB-78 CNS = tested on: SNB-78 CNS
HOP-62 NSCLC = tested on: HOP-62 NSCLC
DMS 273 small cell lung = tested on: DMS 273 small cell lung
HCT-15 colon = tested on: HCT-15 colon
LOX IMVI melanoma = tested on: LOX IMVI melanoma
SK-OV-3 ovarian = tested on: SK-OV-3 ovarian
SF-295 CNS = tested on: SF-295 CNS
IGROV1 ovarian = tested on: IGROV1 ovarian
OVCAR-8 ovarian = tested on: OVCAR-8 ovarian
HCC-2998 colon = tested on: HCC-2998 colon
NCI-H23 lung = tested on: NCI-H23 lung
UACC-257 melanoma = tested on: UACC-257 melanoma
P388/ADR leukemia = tested on: P388/ADR leukemia
SN12K1 renal = tested on: SN12K1 renal
OVCAR-4 ovarian = tested on: OVCAR-4 ovarian
MALME-3M melanoma = tested on: MALME-3M melanoma
MCF7 breast = tested on: MCF7 breast
HOP-18 NSCLC = tested on: HOP-18 NSCLC
HOP-92 NSCLC = tested on: HOP-92 NSCLC
SW-620 colon = tested on: SW-620 colon
UACC-62 melanoma = tested on: UACC-62 melanoma
SK-MEL-2 melanoma = tested on: SK-MEL-2 melanoma
SF-268 CNS = tested on: SF-268 CNS
SK-MEL-28 melanoma = tested on: SK-MEL-28 melanoma
CCRF-CEM leukemia = tested on: CCRF-CEM leukemia
NCI/ADR-RES ovarian = tested on: NCI/ADR-RES ovarian
SNB-75 CNS = tested on: SNB-75 CNS
HT29 colon = tested on: HT29 colon
DMS 114 small cell lung = tested on: DMS 114 small cell lung
MOLT-4 leukemia = tested on: MOLT-4 leukemia
U251 CNS = tested on: U251 CNS

## CN(c1ccccc1)c1c(-c2ccccc2)c(=O)oc2c1ccc1occc12
EKVX NSCLC
  TGI: > 100 µM
SN12C renal
  TGI: > 100 µM
A498 renal
  TGI: > 100 µM
RXF 393 renal
  TGI: > 100 µM
CAKI-1 renal
  TGI: > 100 µM
KM12 colon
  TGI: > 100 µM
COLO 205 colon
  TGI: > 100 µM
NCI-H226 lung
  TGI: 2.85 µM
OVCAR-3 ovarian
  TGI: > 100 µM
M19-MEL melanoma
  TGI: > 100 µM
A549 NSCLC
  TGI: > 100 µM
HCT-116 colon
  TGI: > 100 µM
DLD-1 colon
  TGI: > 100 µM
NCI-H460 lung
  TGI: > 100 µM
SNB-19 CNS
  TGI: > 100 µM
NCI-H522 lung
  TGI: > 100 µM
SK-MEL-5 melanoma
  TGI: > 100 µM
HL-60(TB) leukemia
  TGI: > 100 µM
K-562 leukemia
  TGI: > 100 µM
P388 leukemia
  TGI: > 100 µM
UO-31 renal
  TGI: > 100 µM
SF-539 CNS
  TGI: > 100 µM
SNB-78 CNS
  TGI: > 100 µM
HOP-62 NSCLC
  TGI: > 100 µM
DMS 273 small cell lung
  TGI: > 100 µM
HCT-15 colon
  TGI: > 100 µM
LOX IMVI melanoma
  TGI: > 100 µM
SK-OV-3 ovarian
  TGI: > 100 µM
SF-295 CNS
  TGI: > 100 µM
IGROV1 ovarian
  TGI: > 100 µM
OVCAR-8 ovarian
  TGI: > 100 µM
HCC-2998 colon
  TGI: > 100 µM
NCI-H23 lung
  TGI: > 100 µM
UACC-257 melanoma
  TGI: > 100 µM
P388/ADR leukemia
  TGI: > 100 µM
SN12K1 renal
  TGI: > 100 µM
OVCAR-4 ovarian
  TGI: > 100 µM
MALME-3M melanoma
  TGI: > 100 µM
MCF7 breast
  TGI: > 100 µM
HOP-18 NSCLC
  TGI: > 100 µM
HOP-92 NSCLC
  TGI: > 95.6 µM
SW-620 colon
  TGI: > 100 µM
UACC-62 melanoma
  TGI: > 100 µM
SK-MEL-2 melanoma
  TGI: > 100 µM
SF-268 CNS
  TGI: > 100 µM
SK-MEL-28 melanoma
  TGI: > 100 µM
CCRF-CEM leukemia
  TGI: > 100 µM
NCI/ADR-RES ovarian
  TGI: > 100 µM
SNB-75 CNS
  TGI: > 100 µM
HT29 colon
  TGI: > 100 µM
DMS 114 small cell lung
  TGI: > 100 µM
MOLT-4 leukemia
  TGI: > 100 µM
U251 CNS
  TGI: > 100 µM
